Results on two compounds are retold here after PMC6572996, “Silver(I) Complexes of the Pharmaceutical Agents Metronidazole and 4-Hydroxymethylpyridine: Comparison of Cytotoxic Profile for Potential Clinical Application” (Molecules, 2019).

For data set [1], the system named is Balb/c 3T3 cells. In words: MTT assay (mitochondrial activity), Balb/c 3T3. The format is cell-based, mouse. The settings on record: for Lowest concentration with significant (p ≤ 0.05) inhibition of mitochondrial activity (MTT): Balb/c 3T3, 72 h, vs negative control 0.1% DMSO; for IC50: Balb/c 3T3, 72 h exposure, mean (n = 3) ± SEM, read-out: Inhibitory concentration IC50, MTT. On the procedure: (§1) Data obtained from the measurement of the optical density in these assays were transformed to percentages in relation to the control group, considered to be 100% for the MTT, NRU, and TPC assays and 0% for the LDH assay (Figure 1).
(§2) The human hepatoma cell line (HepG2) was purchased from the American Type Culture Collection (ATCC HB-8065). These cells were cultured in Minimum Essential Medium Eagle (MEME) (ATCC). The murine fibroblast cell line (Balb/c 3T3 clone A31) (gift from Department of Swine Diseases of the National Veterinary Research Institute in Pulawy) was cultured in Dulbecco’s Modified Eagle’s Medium (DMEM) (ATCC). The media were supplemented with 10% BCS (Balb/c 3T3), 10% FBS (HepG2), 1% L-glutamine, and 1% antibiotic solution. The cells were maintained in 75 cm^2 cell culture flasks (Nunc, Roskilde, Denmark) in a humidified incubator, NuAire (Plymouth, MN, USA) at 37 °C, in an atmosphere of 5% CO2. The medium was refreshed every two or three days and the cells were trypsinized by 0.25% trypsin–0.02% EDTA after reaching 70–80% confluence. Single cell suspensions were prepared and adjusted to a density of 2 × 10^5 cells/mL (HepG2) and 5 × 10^4 cells/mL (Balb/c 3T3). The cell suspension was transferred to 96-well plates (100 µL/well) and incubated for 24 h before the exposure to the study compounds.
(§3) The concentration ranges of compounds were chosen according to their solubility and their plasma level. Each compound was dissolved in DMSO. The final concentration of DMSO was 0.1% in the medium. The same final concentrations of the solvent and the 1% Trition-X 100 solution were used as the negative and positive controls, respectively. […] All compound solutions in the medium were freshly prepared and protected from light. […] The concentration range was selected on the basis of results from previous studies. Each concentration was tested in six replicates with three independent experiments. Cytotoxicity was assessed after 72 h of exposure of the cells to the compounds. The medium was not changed during the incubation time.
(§4) The metabolic activity of living cells was assessed by measuring the activity of dehydrogenases. After incubation of the cells with the compounds, a 10 μL portion of the MTT solution (5 mg/ml in PBS) was added to each well of the 96-well plates and incubated. After 3 h, the MTT solution was removed and the intracellular formazan crystals were dissolved in 100 µl DMSO. The plate was shaken for 15 min at room temperature and transferred to a microplate reader (LabSystems Multiskan RC, Thermo Fisher Scientific, Waltham, MA, USA) to measure the absorbance at 570 nm, using blanks as a reference. Cytotoxicity was expressed as a percentage of the negative control (0.1% DMSO).
(§5) The results of the tests were expressed as a mean ± SD. The experiments were performed in three independent repetitions. Statistical analysis was performed using GraphPad Prism 5 (San Diego, CA, USA). One-way analysis of variance (ANOVA) followed by Dunnett’s post-hoc test was applied. The 50% inhibition (cytotoxicity) concentrations (IC50) were derived from the dose–response curve plotted with the concentration of the compound (X-axis) vs. cell viability percent (Y-axis). The IC50 values were calculated by GraphPad Prism 5 software (San Diego, CA, USA). Statistical comparisons among IC50 values were performed by the analysis of variance (ANOVA) followed by the Tukey test. Values of p ≤ 0.05 were considered statistically significant.
(Formazan colour is commonly taken as a measure of viable cells.)

The test system of data set [2] is Balb/c 3T3 cells. Description: NRU assay (lysosomal activity), Balb/c 3T3. The format is cell-based, mouse. The settings on record: for IC50: Balb/c 3T3, 72 h exposure, mean (n = 3) ± SEM, read-out: Inhibitory concentration IC50, NRU. Here is the method:
as §1, §2, §3
(§6) The assay, based on the staining of living cells by neutral red, was performed according to the protocol described by Borenfreund and Puerner. After incubation, the medium containing the compound was removed and the cells were washed with PBS. Then, a 100 µL/well of NR solution (50 µg/mL) was added for 3 h. After that time, the cells were washed with PBS. The dye from viable cells was released by extraction with a mixture of acetic acid, ethanol, and water. After 10 min of shaking, the absorbance of the dissolved NR was measured at 540 nm in a microplate reader (LabSystems Multiskan RC, Thermo Fisher Scientific, Waltham, MA, USA) using a blank as a reference. Cytotoxicity was expressed as a percentage of the negative control (0.1% DMSO).
as §5

For data set [3], the system named is Balb/c 3T3 cells. Description: TPC assay (total protein content), Balb/c 3T3. The format is cell-based, mouse. Conditions: for IC50: Balb/c 3T3, 72 h exposure, mean (n = 3) ± SEM, read-out: Inhibitory concentration IC50, TPC. On the procedure:
as §1, §2, §3
(§7) The assay was based upon staining total cellular protein (proliferation). After incubation, the medium containing the compound was removed and 100 µL of Coomassie Brilliant Blue R-250 dye were added to each well. The plate was shaken for 10 min. Then, the stain was removed and the cells were rinsed twice with 100 µL of washing solution (glacial acetic acid/ethanol/water). After that, a 100 µL portion of the desorbing solution (1 M potassium acetate) was added and plates were shaken again for 10 min. The absorbance was measured at 595 nm in a microplate reader (LabSystems Multiskan RC, Thermo Fisher Scientific, Waltham, MA, USA) using a blank as a reference. Cytotoxicity was expressed as a percentage of the negative control (0.1% DMSO).
as §5

The subject of data set [4] is Balb/c 3T3 cells. Description: Leakage LDH assay (cellular membrane integrity), Balb/c 3T3. The format is cell-based, mouse. Conditions: for IC50: Balb/c 3T3, 72 h exposure, mean (n = 3) ± SEM, read-out: Inhibitory concentration IC50, LDH. On the procedure: as §1, §2, §3
(§8) The integrity of the plasma membrane was assessed using the test of lactate dehydrogenase (LDH) release, which was monitored using the commercially available Cytotoxicity Detection Kit (LDH) (Roche Diagnostics, Warsaw, Poland). The medium (100 µL/well) without cells was transferred into the corresponding wells of an optically clear 96-well flat bottom microplate and a 100 µl reaction mixture was added to each well. Then, the plates were incubated for 30 min at room temperature in darkness. After that time, a 50 µL/well 1 M HCl was added to stop the reaction. The absorbance was measured at 492 nm in a microplate reader (LabSystems Multiskan RC, Thermo Fisher Scientific, Waltham, MA, USA) using a blank as a reference.
as §5

For data set [5], the system named is HepG2 cells. Description: MTT assay (mitochondrial activity), HepG2. The format is cell-based, human. Conditions: for IC50: HepG2, 72 h exposure, mean (n = 3) ± SEM, read-out: Inhibitory concentration IC50, MTT. Here is the method: as §1, §2, §3, §4, §5
Data set [6] relates to HepG2 cells. Description: NRU assay (lysosomal activity), HepG2. Conditions: for Lowest concentration with significant (p ≤ 0.05) inhibition of lysosomal activity (NRU): HepG2, 72 h, vs negative control 0.1% DMSO; for IC50: HepG2, 72 h exposure, mean (n = 3) ± SEM, read-out: Inhibitory concentration IC50, NRU. The format is cell-based, human. Here is the method:
as §1, §2, §3, §6, §5

Data set [7] deals with HepG2 cells. In words: TPC assay (total protein content), HepG2. The format is cell-based, human. The settings on record: for Lowest concentration with significant (p ≤ 0.05) decrease of total protein content (TPC): HepG2, 72 h, vs negative control 0.1% DMSO; for IC50: HepG2, 72 h exposure, mean (n = 3) ± SEM, read-out: Inhibitory concentration IC50, TPC. Here is the method:
as §1, §2, §3, §7, §5

Data set [8] has as its system HepG2 cells. Description: Leakage LDH assay (cellular membrane integrity), HepG2. The format is cell-based, human. Conditions: for IC50: HepG2, 72 h exposure, mean (n = 3) ± SEM, read-out: Inhibitory concentration IC50, LDH. Here is the method: as §1, §2, §3, §8, §5
For data set [9], the system named is murine melanoma (B16) cell line. The arrangement: method as in PMID 26828469. The settings on record: cited from earlier work.
For data set [10], the system named is HepG2 cells. The arrangement: method as in doi:10.2478/v10213-012-0102-5. The settings on record: cited from earlier work.
The test system of a further data set is FaO cells. The arrangement: method as in doi:10.2478/v10213-012-0102-5. Conditions: cited from earlier work.
Setting [11] is: Balb/c 3T3, 72 h, vs negative control 0.1% DMSO.
Where [12] appears, read: HepG2, 72 h, vs negative control 0.1% DMSO.

Structures are written as SMILES.

For `Cc1ncc([N+](=O)[O-])n1CCO` [Metronidazole], the “Lowest concentration with significant (p ≤ 0.05) inhibition of mitochondrial activity (MTT)” value in the data set on Balb/c 3T3 cells [1] is 36 µM. The IC50 is more than 146 µM in the data set on Balb/c 3T3 cells [1] (Mus musculus, BALB/c3T3); more than 146 µM in the data set with Balb/c 3T3 cells [2] (Mus musculus, BALB/c3T3); more than 146 µM with Balb/c 3T3 cells [3] (Mus musculus, BALB/c3T3); more than 146 µM in the data set with Balb/c 3T3 cells [4] (Mus musculus, BALB/c3T3); more than 146 µM with HepG2 cells [5] (Homo sapiens); more than 146 µM with HepG2 cells [6] (Homo sapiens). For the same compound, the IC50 with HepG2 cells [7] (Homo sapiens) and in the data set with HepG2 cells [8] (Homo sapiens) was more than 146 µM each time. Besides, the “Lowest concentration with significant (p ≤ 0.05) inhibition of lysosomal activity (NRU)” value in the data set on HepG2 cells [6] was 146 µM. The “Lowest concentration with significant (p ≤ 0.05) decrease of total protein content (TPC)” value in the data set with HepG2 cells [7] is given as 8.8 µM. The “Cytotoxicity in B16 cell line” value in data set [9] (same observation as in this study) was “poorly cytotoxic”. In addition, the “Cytotoxicity in HepG2 cells” value in the data set with HepG2 cells [10] was “low cytotoxicity”. In addition, the “Cytotoxicity in FaO cells” value in the data set with FaO cells is on record as “low cytotoxicity”.
In the case of `O=[N+]([O-])[O-].[Ag+]` [Silver nitrate], the “Lowest concentration with significant (p ≤ 0.05) inhibition of mitochondrial activity (MTT)” value is reported as 2.2 µM in the data set on Balb/c 3T3 cells [1] and 4.4 µM in the data set with HepG2 cells [5] (setting [12]). For the same compound, the IC50 in the data set on Balb/c 3T3 cells [1] amounted to 2.13 ± 0.88 µM; in the data set with Balb/c 3T3 cells [2], 2.94 ± 1.06 µM; in the data set on Balb/c 3T3 cells [3] it was 2.59 ± 1.3 µM; in the data set with Balb/c 3T3 cells [4], 3.12 ± 0.06 µM; in the data set with HepG2 cells [5], 6.48 ± 1.6 µM; with HepG2 cells [6], 6.18 ± 1.41 µM. The IC50 in the data set on HepG2 cells [7] is 60.3 ± 8.1 µM; in the data set on HepG2 cells [8], 3.47 ± 0.24 µM; in data set [9] (72 h incubation), 9.74 µM. Moreover, the “Lowest concentration with significant (p ≤ 0.05) inhibition of lysosomal activity (NRU)” value in the data set on Balb/c 3T3 cells [2] (setting [11]) worked out at 2.2 µM; in the data set with HepG2 cells [6] it was 4.4 µM. Moreover, the “Lowest concentration with significant (p ≤ 0.05) decrease of total protein content (TPC)” value in the data set with Balb/c 3T3 cells [3] (setting [11]) worked out at 2.2 µM; in the data set with HepG2 cells [7], 8.8 µM. In addition, the figures for the “Lowest concentration with significant (p ≤ 0.05) disintegration of the cellular membrane (LDH)” value with Balb/c 3T3 cells [4] (setting [11]) and in the data set on HepG2 cells [8] (setting [12]) were 2.2 µM and 4.4 µM, respectively.
